Tests used:
Settings in all cases: 48 h
NOMO1 [1] = assay: cell viability relative to DMSO control; higher = less cytotoxic
Outline: (§1)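 Library compounds in DMSO were pin-dosed into 1536-well plates (5 μl) holding NOMO1 or SEM (500 cells/well) or P12-Ichikawa (1000 cells/well) leukemia cells, across an 11-point threefold series of 47 μM to 0.79 nM. Each cell line had been adapted for at least four passages in each medium. CellTiter-Glo One luminescence was read after 48 h at 37°C. Viability is the per-plate percentage relative to DMSO wells, with cell-free wells as background.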

P12-Ichikawa [2] = assay: as above
Outline: as §1

SEM cells [3] = assay: as above
Outline: as §1

NOMO1 [4] = assay: AUC of viability dose-response curve (% viability x log10 dose units); higher = less sensitive
Outline: (§2)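 Seeding of medium-adapted leukemia cells was at 500 or 1000 cells/well in 1536-well plates, followed by 48 h at 37°C with library compounds in DMSO at 11 threefold doses from 47 μM to 0.79 nM. CellTiter-Glo One luminescence was normalised per plate to DMSO and cell-free wells and fitted as a four-parameter log-logistic function of log10 dose. Area under the curve was integrated by trapezoidal rule, with curves exceeding full viability scaled and curves failing quality control removed.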

P12-Ichikawa [5] = assay: as above
Outline: as §2

SEM cells [6] = assay: as above
Outline: as §2

CNC(=O)c1nn(C)c2c1C(C)(C)Cc1cnc(Nc3ccc(N4CCN(C)CC4)cc3)nc1-2
cell viability [%]
Settings	NOMO1 [1]	P12-Ichikawa [2]	SEM cells [3]
HPLM + 10% dialyzed FBS, 0.000781 µM	125	106	108
HPLM + 10% dialyzed FBS, 0.00234 µM	108	107	101
HPLM + 10% dialyzed FBS, 0.00702 µM	104	112	103
HPLM + 10% dialyzed FBS, 0.0211 µM	104	105	93
HPLM + 10% dialyzed FBS, 0.0632 µM	99.7	108	89.1
HPLM + 10% dialyzed FBS, 0.19 µM	113	111	64.6
HPLM + 10% dialyzed FBS, 0.569 µM	103	108	39.3
HPLM + 10% dialyzed FBS, 1.71 µM	65.8	83.7	16
HPLM + 10% dialyzed FBS, 5.12 µM	55.6	76	12
HPLM + 10% dialyzed FBS, 15.4 µM	47.8	36.7	7.99
HPLM + 10% dialyzed FBS, 46.1 µM	8.74	35.6	7.09
RPMI 5 mM glucose + 10% FBS, 0.000781 µM	111	113	115
RPMI 5 mM glucose + 10% FBS, 0.00234 µM	114	113	97.1
RPMI 5 mM glucose + 10% FBS, 0.00702 µM	103	119	113
RPMI 5 mM glucose + 10% FBS, 0.0211 µM	107	123	104
RPMI 5 mM glucose + 10% FBS, 0.0632 µM	115	117	86.5
RPMI 5 mM glucose + 10% FBS, 0.19 µM	111	120	67.4
RPMI 5 mM glucose + 10% FBS, 0.569 µM	100	109	48.8
RPMI 5 mM glucose + 10% FBS, 1.71 µM	86.6	79	13.8
RPMI 5 mM glucose + 10% FBS, 5.12 µM	78.8	65.4	8.18
RPMI 5 mM glucose + 10% FBS, 15.4 µM	48.3	44.8	5.66
RPMI 5 mM glucose + 10% FBS, 46.1 µM	13.2	26.4	2.21
RPMI 5 mM glucose + 10% dialyzed FBS, 0.000781 µM	113	107	97.9
RPMI 5 mM glucose + 10% dialyzed FBS, 0.00234 µM	102	119	101
RPMI 5 mM glucose + 10% dialyzed FBS, 0.00702 µM	107	123	101
RPMI 5 mM glucose + 10% dialyzed FBS, 0.0211 µM	106	123	110
RPMI 5 mM glucose + 10% dialyzed FBS, 0.0632 µM	118	110	78.6
RPMI 5 mM glucose + 10% dialyzed FBS, 0.19 µM	108	115	69.5
RPMI 5 mM glucose + 10% dialyzed FBS, 0.569 µM	103	95.9	47.2
RPMI 5 mM glucose + 10% dialyzed FBS, 1.71 µM	75.6	77.1	16.8
RPMI 5 mM glucose + 10% dialyzed FBS, 5.12 µM	66	61.9	9.79
RPMI 5 mM glucose + 10% dialyzed FBS, 15.4 µM	46.8	36.1	7.03
RPMI 5 mM glucose + 10% dialyzed FBS, 46.1 µM	8.73	35.3	4.75

AUC of viability dose-response curve
Settings	NOMO1 [4]	P12-Ichikawa [5]	SEM cells [6]
HPLM + 10% dialyzed FBS	371	404	269
RPMI 5 mM glucose + 10% FBS	400	384	265
RPMI 5 mM glucose + 10% dialyzed FBS	386	376	275

COc1ccc(-n2c(C)c([N+](=O)[O-])c3ccc(O)cc32)cc1
cell viability [%]
Settings	NOMO1 [1]	P12-Ichikawa [2]	SEM cells [3]
RPMI 5 mM glucose + 10% FBS, 0.000781 µM	111	127	102
RPMI 5 mM glucose + 10% FBS, 0.00234 µM	104	118	103
RPMI 5 mM glucose + 10% FBS, 0.00702 µM	113	118	111
RPMI 5 mM glucose + 10% FBS, 0.0211 µM	114	126	107
RPMI 5 mM glucose + 10% FBS, 0.0632 µM	118	118	120
RPMI 5 mM glucose + 10% FBS, 0.19 µM	126	123	109
RPMI 5 mM glucose + 10% FBS, 0.569 µM	107	122	108
RPMI 5 mM glucose + 10% FBS, 1.71 µM	121	121	122
RPMI 5 mM glucose + 10% FBS, 5.12 µM	98.3	115	127
RPMI 5 mM glucose + 10% FBS, 15.4 µM	119	111	121
RPMI 5 mM glucose + 10% FBS, 46.1 µM	106	105	98.5
RPMI 5 mM glucose + 10% dialyzed FBS, 0.000781 µM	114	119	–
RPMI 5 mM glucose + 10% dialyzed FBS, 0.00234 µM	120	121	–
RPMI 5 mM glucose + 10% dialyzed FBS, 0.00702 µM	126	120	–
RPMI 5 mM glucose + 10% dialyzed FBS, 0.0211 µM	124	122	–
RPMI 5 mM glucose + 10% dialyzed FBS, 0.0632 µM	123	114	–
RPMI 5 mM glucose + 10% dialyzed FBS, 0.19 µM	115	118	–
RPMI 5 mM glucose + 10% dialyzed FBS, 0.569 µM	114	121	–
RPMI 5 mM glucose + 10% dialyzed FBS, 1.71 µM	102	122	–
RPMI 5 mM glucose + 10% dialyzed FBS, 5.12 µM	97.5	106	–
RPMI 5 mM glucose + 10% dialyzed FBS, 15.4 µM	105	112	–
RPMI 5 mM glucose + 10% dialyzed FBS, 46.1 µM	101	102	–

AUC of viability dose-response curve
Settings	NOMO1 [4]	P12-Ichikawa [5]	SEM cells [6]
HPLM + 10% dialyzed FBS	452	446	469
RPMI 5 mM glucose + 10% FBS	476	465	453
RPMI 5 mM glucose + 10% dialyzed FBS	446	464	468

CN(C)CCc1c[nH]c2ccc(Cn3cncn3)cc12
cell viability [%]
Settings	NOMO1 [1]	P12-Ichikawa [2]	SEM cells [3]
HPLM + 10% dialyzed FBS, 0.000781 µM	93.7	96.3	76.1
HPLM + 10% dialyzed FBS, 0.00234 µM	103	95	88.7
HPLM + 10% dialyzed FBS, 0.00702 µM	105	107	97.4
HPLM + 10% dialyzed FBS, 0.0211 µM	102	101	96.4
HPLM + 10% dialyzed FBS, 0.0632 µM	115	107	98
HPLM + 10% dialyzed FBS, 0.19 µM	77.6	97	48.5
HPLM + 10% dialyzed FBS, 0.569 µM	86.2	101	55
HPLM + 10% dialyzed FBS, 1.71 µM	18.3	22.8	23
HPLM + 10% dialyzed FBS, 5.12 µM	9.15	6.71	9.54
HPLM + 10% dialyzed FBS, 15.4 µM	6.34	7.05	8.01
HPLM + 10% dialyzed FBS, 46.1 µM	3.57	6.29	7.53
RPMI 5 mM glucose + 10% FBS, 0.000781 µM	84.7	92	86
RPMI 5 mM glucose + 10% FBS, 0.00234 µM	91.7	101	91
RPMI 5 mM glucose + 10% FBS, 0.00702 µM	89.8	91.4	86.9
RPMI 5 mM glucose + 10% FBS, 0.0211 µM	87.1	105	84.9
RPMI 5 mM glucose + 10% FBS, 0.0632 µM	91.5	105	75.8
RPMI 5 mM glucose + 10% FBS, 0.19 µM	65.3	69.3	30.7
RPMI 5 mM glucose + 10% FBS, 0.569 µM	82.4	91.1	36.3
RPMI 5 mM glucose + 10% FBS, 1.71 µM	17.4	30.9	10.4
RPMI 5 mM glucose + 10% FBS, 5.12 µM	7.32	8.08	7.9
RPMI 5 mM glucose + 10% FBS, 15.4 µM	5.18	6.52	7.16
RPMI 5 mM glucose + 10% FBS, 46.1 µM	3.92	4.97	6.13
RPMI 5 mM glucose + 10% dialyzed FBS, 0.000781 µM	94.9	93.7	91.4
RPMI 5 mM glucose + 10% dialyzed FBS, 0.00234 µM	93.5	89.5	96.1
RPMI 5 mM glucose + 10% dialyzed FBS, 0.00702 µM	98.1	88.3	88.9
RPMI 5 mM glucose + 10% dialyzed FBS, 0.0211 µM	106	92.4	97.5
RPMI 5 mM glucose + 10% dialyzed FBS, 0.0632 µM	92.8	97.3	79.3
RPMI 5 mM glucose + 10% dialyzed FBS, 0.19 µM	78.8	68.3	43.4
RPMI 5 mM glucose + 10% dialyzed FBS, 0.569 µM	86.1	76.5	50.7
RPMI 5 mM glucose + 10% dialyzed FBS, 1.71 µM	32	22.3	18.2
RPMI 5 mM glucose + 10% dialyzed FBS, 5.12 µM	10.7	7.34	9.37
RPMI 5 mM glucose + 10% dialyzed FBS, 15.4 µM	5.4	6.02	8.33
RPMI 5 mM glucose + 10% dialyzed FBS, 46.1 µM	4.44	5.62	6.69

AUC of viability dose-response curve
Settings	NOMO1 [4]	P12-Ichikawa [5]	SEM cells [6]
HPLM + 10% dialyzed FBS	318	329	267
RPMI 5 mM glucose + 10% FBS	277	312	226
RPMI 5 mM glucose + 10% dialyzed FBS	311	286	257

From the supplement of paper PMC11451515
